US7582762B2, “Salt and crystalline forms of (2R)-anti-5-{3-[4-(10,11-difluoromethanodibenzosuber-5-YL)piperazin-1-YL]-2-hydroxypropoxy}quinoline” (Eli Lilly and Company, priority 2001, dated 2009)
“Also recorded” adds a separate entry of the source. Where a name gives a salt, the structure may show the parent alone.

Tests used:
[1] = Incorporation of organic solvents into the crystal lattice; format: physicochemical; conditions: compared with trihydrochloride salt/crystal (Form I)
[2] = Moisture sorption profile over relative humidity; format: physicochemical; conditions: over a wide range of relative humidity; compared with trihydrochloride salt/crystal (Form I)
[3] = Thermodynamic stability of salt and crystal forms; conditions: for thermodynamic stability relative to trihydrochloride (Form I): compared with trihydrochloride salt/crystal (Form I), hydrochloride

| Compound | incorporation of organic solvents [1] | moisture sorption (water sorbed) [2] | thermodynamic stability relative to trihydrochloride (Form I) [3] | most stable form ([3]; organic solutions and solid state at ambient temperature/relative humidity) | incorporation of organic solvents ([1]; hydrochloride) | most stable form ([3]; aqueous and acidic media) |
| --- | --- | --- | --- | --- | --- | --- |
| Cl.Cl.Cl.Cl.Cl.O[C@@H](COc1cccc2ncccc12)CN1CCN(C2c3ccccc3C3C(c4ccccc42)C3(F)F)CC1.O[C@@H](COc1cccc2ncccc12)CN1CCN(C2c3ccccc3C3C(c4ccccc42)C3(F)F)CC1 (stereo partly drawn) [2.5 salt, (2R)-anti-5-{3-[4-(10,11-difluoromethanodibenzosuber-5-yl)piperazin-1-yl]-2-hydroxypropoxy}quinoline 2.5 hydrochloride] | do not incorporate organic solvents as readily as the trihydrochloride salt and crystal | sorb less water overall over a wide range of relative humidity |  |  |  |  |
| O[C@@H](COc1cccc2ncccc12)CN1CCN([C@@H]2c3ccccc3[C@@H]3[C@H](c4ccccc42)C3(F)F)CC1 [Form II, (2R)-anti-5-{3-[4-(10,11-difluoromethanodibenzosuber-5-yl)piperazin-1-yl]-2-hydroxypropoxy}quinoline 2.5 hydrochloride] |  | sorb less water overall over a wide range of relative humidity | thermodynamically more stable than Form I; also recorded: thermodynamically more stable than the trihydrochloride salt and crystal | most stable in organic solutions and in the solid state at ambient temperature/relative humidity | do not incorporate organic solvents as readily as Form I; also recorded: do not incorporate organic solvents as readily as the trihydrochloride salt and crystal |  |
| O[C@@H](COc1cccc2ncccc12)CN1CCN([C@@H]2c3ccccc3[C@@H]3[C@H](c4ccccc42)C3(F)F)CC1 [Form III, (2R)-anti-5-{3-[4-(10,11-difluoromethanodibenzosuber-5-yl)piperazin-1-yl]-2-hydroxypropoxy}quinoline 2.5 hydrochloride] |  | sorb less water overall over a wide range of relative humidity | thermodynamically more stable than Form I; also recorded: thermodynamically more stable than the trihydrochloride salt and crystal |  | do not incorporate organic solvents as readily as Form I; also recorded: do not incorporate organic solvents as readily as the trihydrochloride salt and crystal | most stable in aqueous and acidic media |
